The record followed here is US6525090B1, “Methods of treating mental diseases, inflammation and pain” (Neurosciences Research Foundation, Inc., priority 1996, dated 2003).

For experiment [1], the target named is T1, rat liver anandamide amidohydrolase (Rattus norvegicus, UniProt P97612).
T1 construct: Anandamide amidohydrolase was measured in rat brain or rat liver microsome fractions; from tissue; host or cells: rat liver microsome fractions
T1 sequence (P97612 1-579): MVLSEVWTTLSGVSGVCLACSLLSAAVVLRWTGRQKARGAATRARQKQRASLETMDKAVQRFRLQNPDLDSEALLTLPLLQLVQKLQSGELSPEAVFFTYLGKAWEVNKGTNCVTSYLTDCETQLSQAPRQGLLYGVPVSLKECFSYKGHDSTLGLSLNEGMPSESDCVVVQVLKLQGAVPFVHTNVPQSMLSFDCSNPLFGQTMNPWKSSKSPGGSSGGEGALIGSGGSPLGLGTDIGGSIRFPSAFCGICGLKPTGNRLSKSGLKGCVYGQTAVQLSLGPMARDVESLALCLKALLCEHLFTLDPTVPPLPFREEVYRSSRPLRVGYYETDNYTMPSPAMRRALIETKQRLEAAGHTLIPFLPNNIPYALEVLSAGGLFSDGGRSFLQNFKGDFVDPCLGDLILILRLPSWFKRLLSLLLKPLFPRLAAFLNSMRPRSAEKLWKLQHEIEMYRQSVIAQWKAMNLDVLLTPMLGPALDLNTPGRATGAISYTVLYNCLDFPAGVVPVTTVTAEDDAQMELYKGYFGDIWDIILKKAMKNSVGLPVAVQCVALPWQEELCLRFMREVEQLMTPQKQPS
As to the kind of experiment: Anandamide amidohydrolase assay, rat liver microsome fractions. It is filed as biochemical. Background: Liver microsomes are vesicles of endoplasmic reticulum, rich in cytochrome P450 enzymes.
Experimental: Anandamide amidohydrolase was measured in rat brain or rat liver microsome fractions. […] After 10 min. of incubation, the reactions were stopped with cold methanol, the radiolabeled lipids extracted with chloroform, and the organic phases brought to dryness under a stream of N2 gas. The radioactive products were then fractionated by thin-layer chromatography (solvent system: chloroform/methanol/ammonia, 90:10:1 vol/vol/vol), collected by scraping appropriate areas of the chromatography plate, and quantified by liquid scintillation counting.

The target in experiment [2] is T2, anandamide amidohydrolase of intact astrocytes (Rattus norvegicus, UniProt P97612).
T2 construct: endogenous in cells; host or cells: primary rat cortical astrocytes, 3 weeks in culture
T2 sequence (P97612 1-579): T1 sequence (P97612 1-579)
As to the kind of experiment: Assay in cultures of cortical astrocytes (anandamide amidohydrolase of intact cells). It is filed as cell-based. The conditions noted are these: rat cortical astrocyte cultures, 20 min incubation, 37° C., radiolabeled arachidonic acid or phospholipids measured; read-out: IC50, inhibition of anandamide amidohydrolase of intact astrocytes. The method, then:
Cultures of rat cortical astrocytes, essentially free of neurons, were prepared following the standard procedures described in Cadas et al., J. Neurosci. 16, 3934-3942 (1996), and used after 3 weeks in culture. […] The organic phases were dried, and analyzed as follows. To measure radiolabeled anandamide and arachidonic acid, the organic extracts were fractionated by silica gel G column chromatography, as described in Fontana et al., Prostaglandins Leukotrienes Essential Fatty Acids 53, 301-308 (1995). Radiolabeled anandamide and arachidonic acid were eluted from the column with a solvent system of chloroform/methanol (9:1, vol/vol), and further purified by thin-layer chromatography (solvent system of chloroform/methanol/ammonia, 80:20:1, vol/vol/vol). To measure radiolabeled phospholipids, which were formed in intact cells from the enzymatic esterification of radiolabeled arachidonic acid, the organic extracts were fractionated by thin-layer chromatography (solvent system of chloroform/methanol/ammonia/water, 65:25:4:1, vol/vol/vol/vol).

The test system of experiment [3] is uptake of radiolabeled anandamide. Briefly: Uptake and intracellular level of radiolabeled anandamide in cortical astrocyte cultures. As to conditions: rat cortical astrocyte cultures. It is filed as cell-based.
Experiment [4] addresses rat brain anandamide amidohydrolase (Rattus norvegicus, UniProt P97612). As to the kind of experiment: biochemical.
Experimental: Anandamide amidohydrolase was measured in rat brain or rat liver microsome fractions. The fractions (0.1 mg of protein) were prepared following the protocols of Desarnaud et al., J. Biol. Chem. 270, 6030-6035 (1995), and were incubated in 50 mM Tris-Cl (pH 7.4) at 37° C., in the presence of radiolabeled anandamide obtained from New England Nuclear, Wilmington, Del., 221 Ci/mmol), plus various concentrations of test inhibitor (0.1-100 μM). After 10 min. of incubation, the reactions were stopped with cold methanol, the radiolabeled lipids extracted with chloroform, and the organic phases brought to dryness under a stream of N2 gas. The radioactive products were then fractionated by thin-layer chromatography (solvent system: chloroform/methanol/ammonia, 90:10:1 vol/vol/vol), collected by scraping appropriate areas of the chromatography plate, and quantified by liquid scintillation counting.

A word on the IC50: it is the concentration needed to halve the response being measured. `O=C1O/C(=C/Br)CCC1c1cccc2ccccc12` (stereo not drawn) [E-6-(bromomethylene)tetrahydro-3-(1-naphthalenyl)-2H-pyrane-2-one]: in experiment [1] (liver versus brain anandamide amidohydrolase), the “inhibitory concentrations for liver enzyme relative to brain” value is on record as “more than 100 fold”. For the same compound, the 50% inhibitory concentration (IC50) in experiment [1] (rat liver microsome fractions, 10 min incubation, 37° C., pH 7.4, radiolabeled anandamide, read-out: IC50, inhibition of the liver enzyme) is 97000 nM; in experiment [2], 500 nM; in experiment [4] it was 700 nM. The “inhibition of uptake of radiolabeled anandamide” value in experiment [3] is recorded as “does not inhibit”. In addition, the “intracellular levels of radiolabeled anandamide” value in experiment [3] (in the presence of the compound) was “greatly increased”.
